Here are results for one compound from patent US6784201B2, “Benzothiepines having activity as inhibitors of ileal bile acid transport and taurocholate uptake” (G.D. Searle & Company, priority 1994, dated 2004).

The nature of series [1]: Efficacy in cholesterol-fed hamsters: body, liver and fecal weight. Type of series: in vivo, hamster. The following applies: 0.2% Cpd. No. 25, mean (SEM).
Series [2] relates to Rat Ileal Uptake of [14C]-Taurocholate. Description: In vivo assay of rat ileal uptake of [14C]-taurocholate into bile (ileal loop). Here is the method: In Vivo Assay of Compounds that Inhibit Rat Ileal Uptake of [^14C]-Taurocholate into Bile
(See “Metabolism of 3α,7β-dihydroxy-7α-methyl-5β-cholanoic acid and 3α,7β-dihydroxy-7α-methyl-5β-cholanoic acid in hamsters” in Biochimica et Biophysica Acta 833 (1985) 196-202 by Une et al.)
Male wistar rats (200-300 g) are anesthetized with inactin @100 mg/kg. Bile ducts are cannulated with a 10″ length of PE10 tubing. The small intestine is exposed and laid out on a gauze pad. A canulae (⅛″ luer lock, tapered female adapter) is inserted at 12 cm from the junction of the small intestine and the cecum. A slit is cut at 4 cm from this same junction (utilizing a 8 cm length of ileum). 20 ml of warm Dulbecco's phosphate buffered saline, pH 6.5 (PBS) is used to flush out the intestine segment. The distal opening is cannulated with a 20 cm length of silicone tubing (0.02″ I.D.×0.037″ O.D.). The proximal cannulae is hooked up to a peristaltic pump and the intestine is washed for 20 min with warm PBS at 0.25 ml/min. Temperature of the gut segment is monitored continuously. At the start of the experiment, 2.0 ml of control sample ([^14C]-taurocholate @ 0.05 mi/ml with 5 mM cold taurocholate) is loaded into the gut segment with a 3 ml syringe and bile sample collection is begun. Control sample is infused at a rate of 0.25 ml/min for 21 min. Bile samples fractions are collected every 3 minute for the first 27 minutes of the procedure. After the 21 min of sample infusion, the ileal loop is washed out with 20 ml of warm PBS (using a 30 ml syringe), and then the loop is washed out for 21 min with warm PBS at 0.25 ml/min. A second perfusion is initiated as described above but this with test compound being administered as well (21 min administration followed by 21 min of wash out) and bile sampled every 3 min for the first 27 min. If necessary, a third perfusion is performed as above that typically contains the control sample.

In another series the test system is H14 cells. Description: In vitro assay of uptake of [14C]-alanine. Type of series: cell-based, hamster. Particulars: Mesocricetus auratus; 10 μM. The method in brief: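 H14 cells (BHK expressing human IBAT) incubated 2 h at 37 °C with compound and labelled alanine, in the same format as the 3 μM [14C]-taurocholate uptake assay, in DMEM with 0.2% fatty acid-free BSA. After cold PBS washes, cell-associated radioactivity measured by scintillation counting.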

Series [3] deals with Hepatic Cholesterol 7-α-Hydroxylase. The experiment in a line: Hepatic cholesterol 7-α-hydroxylase activity, rat Alzet minipump model. It is filed as in vivo. The following applies: 20 MPL/DAY, mean (SEM). How it is done:
(§1) Measurement of Hepatic Cholesterol 7-α-Hydroxylase Activity (7a-OHase)
(§2) Hepatic microsomes were prepared by homogenizing liver samples in a phosphate/sucrose buffer, followed by centrifugal separation. The final pelleted material was resuspended in buffer and an aliquot was assayed for cholesterol 7-α-hydroxylase activity by incubating for 5 minutes at 37° C. in the presence of NADPH. Following extraction into petroleum ether, the organic solvent was evaporated and the residue was dissolved in acetonitrile/methanol. The enzymatic product was separated by injecting an aliquot of the extract onto a C18 reversed phase HPLC column and quantitating the eluted material using UV detection at 240 nm. (Reference: Horton, J. D., et al. (1994) J. Clin. Invest. 93, 2084).

For series [4] the test system is unchanged. The experiment in a line: Hepatic cholesterol 7-α-hydroxylase activity, cholesterol-fed hamsters. Particulars: 0.2% Cpd. No. 25, mean (SEM). Type of series: in vivo, hamster. Here is the method:
as §1, §2

In the next series the target is ACAT. The experiment in a line: Acyl-CoA; cholesterol acyl transferase (ACAT), rat intestinal microsomes. It is filed as biochemical. Particulars: read-out: ACAT intestine IC(50). Here is the method:
Acyl-CoA; Cholesterol Acyl Transferase (ACAT)
Hamster liver and rat intestinal microsomes were prepared from tissue as described previously (Reference: (1980) J. Biol. Chem. 255, 9098) and used as a source of ACAT enzyme. The assay consisted of a 2.0 ml incubation containing 24 μM Oleoyl-CoA (0.05 μCi) in a 50 mM sodium phosphate, 2 mM DTT ph 7.4 buffer containing 0.25% BSA and 200 μg of microsomal protein. The assay was initiated by the addition of oleoyl-CoA. The reaction went for 5 min at 37° C. and was terminated by the addition of 8.0 ml of chloroform/methanol (2:1). […] The chloroform phase was taken to dryness and then spotted on a silica gel 60 TLC plate and developed in hexane/ethyl ether (9:1). The amount of cholesterol ester formed was determined by measuring the amount of radioactivity incorporated into the cholesterol oleate spot on the TLC plate with a Packard instaimager.

In series [5] the test system is Hepatic HMG CoA-Reductase. The experiment in a line: Hepatic HMG CoA-reductase activity, rat Alzet minipump model. The following applies: 20 MPL/DAY, mean (SEM). Type of series: in vivo. Here is the method:
Measurement of Hepatic HMG CoA-Reductase Activity (HMG COA)
Hepatic microsomes were prepared by homogenizing liver samples in a phosphate/sucrose buffer, followed by centrifugal separation. The final pelleted material was resuspended in buffer and an aliquot was assayed for HMG CoA reductase activity by incubating for 60 minutes at 37° C. in the presence of ^14C-HMG-CoA (Dupont-NEN). The reaction was stopped by adding 6N HCl followed by centrifugation. An aliquot of the supernatant was separated, by thin-layer chromatography, and the spot corresponding to the enzyme product was scraped off the plate, extracted and radioactivity was determined by scintillation counting. (Reference: Akerlund, J. and Bjorkhem, I. (1990) J. Lipid Res. 31, 2159).

For `CCCC[C@]1(CC)CS(=O)(=O)c2cc(OC)ccc2[C@@H](c2ccccc2)[C@H]1O` [Example 25, (3α,4β,5β) 3-Butyl-3-ethyl-4-hydroxy-8-methoxy-5-phenyl-2,3,4,5-tetrahydrobenzothiepine-1,1-dioxide], in series [1], the “LIVER WEIGHT (G)” value is reported as 5.8 (0.2) G, the “WEIGHT (G) day 1” value is on record as 117 (5) G and the “WEIGHT (G) day 14” value is 132 (4) G. In addition, the activity at 100 µM in series [2] (Rattus norvegicus, read-out: % of Control Transport of TC in Rat Ileum @ 0.1 mM) amounted to 26%. For the same compound, the EC50 in series [2] (rat ileal loop, read-out: TC-uptake Ileal Loop EC(50)) came out at 20 µM. 10 µM produced 4% inhibition with H14 cells. Further, the “7a-OHase (pm/mg/min)” value in series [3] is 535.2 (35.7) *A, B pm/mg/min. Moreover, the “7a-OHase (pm/mg/min.)” value in series [4] is reported as 291.0 (6.0) *A pm/mg/min. The IC50 on ACAT stood at 8 µM. Also, the “HMG COA pm/mg/min” value in series [5] is 318.0 (40.7) *A, B pm/mg/min.

For orientation: inhibition means the share of the control response that was lost under treatment.
